DC50 and Dmax data for six molecules are collected here from US20250186434A1, “SOS1 PROTEIN DEGRADERS, PHARMACEUTICAL COMPOSITIONS THEREOF, AND THEIR THERAPEUTIC APPLICATIONS” (BioTheryX, Inc., priority 2022, published 2025).

The assay concerns the target T1, HiBiT-tagged endogenous SOS1 protein (Homo sapiens, UniProt Q07889).
T1 construct: HEK293 cells were engineered to express a HiBiT-tagged endogenous SOS1 protein; endogenous in cells; host or cells: HEK293 (engineered, HiBiT knock-in at the endogenous SOS1 locus)
T1 sequence (Q07889 1-1333): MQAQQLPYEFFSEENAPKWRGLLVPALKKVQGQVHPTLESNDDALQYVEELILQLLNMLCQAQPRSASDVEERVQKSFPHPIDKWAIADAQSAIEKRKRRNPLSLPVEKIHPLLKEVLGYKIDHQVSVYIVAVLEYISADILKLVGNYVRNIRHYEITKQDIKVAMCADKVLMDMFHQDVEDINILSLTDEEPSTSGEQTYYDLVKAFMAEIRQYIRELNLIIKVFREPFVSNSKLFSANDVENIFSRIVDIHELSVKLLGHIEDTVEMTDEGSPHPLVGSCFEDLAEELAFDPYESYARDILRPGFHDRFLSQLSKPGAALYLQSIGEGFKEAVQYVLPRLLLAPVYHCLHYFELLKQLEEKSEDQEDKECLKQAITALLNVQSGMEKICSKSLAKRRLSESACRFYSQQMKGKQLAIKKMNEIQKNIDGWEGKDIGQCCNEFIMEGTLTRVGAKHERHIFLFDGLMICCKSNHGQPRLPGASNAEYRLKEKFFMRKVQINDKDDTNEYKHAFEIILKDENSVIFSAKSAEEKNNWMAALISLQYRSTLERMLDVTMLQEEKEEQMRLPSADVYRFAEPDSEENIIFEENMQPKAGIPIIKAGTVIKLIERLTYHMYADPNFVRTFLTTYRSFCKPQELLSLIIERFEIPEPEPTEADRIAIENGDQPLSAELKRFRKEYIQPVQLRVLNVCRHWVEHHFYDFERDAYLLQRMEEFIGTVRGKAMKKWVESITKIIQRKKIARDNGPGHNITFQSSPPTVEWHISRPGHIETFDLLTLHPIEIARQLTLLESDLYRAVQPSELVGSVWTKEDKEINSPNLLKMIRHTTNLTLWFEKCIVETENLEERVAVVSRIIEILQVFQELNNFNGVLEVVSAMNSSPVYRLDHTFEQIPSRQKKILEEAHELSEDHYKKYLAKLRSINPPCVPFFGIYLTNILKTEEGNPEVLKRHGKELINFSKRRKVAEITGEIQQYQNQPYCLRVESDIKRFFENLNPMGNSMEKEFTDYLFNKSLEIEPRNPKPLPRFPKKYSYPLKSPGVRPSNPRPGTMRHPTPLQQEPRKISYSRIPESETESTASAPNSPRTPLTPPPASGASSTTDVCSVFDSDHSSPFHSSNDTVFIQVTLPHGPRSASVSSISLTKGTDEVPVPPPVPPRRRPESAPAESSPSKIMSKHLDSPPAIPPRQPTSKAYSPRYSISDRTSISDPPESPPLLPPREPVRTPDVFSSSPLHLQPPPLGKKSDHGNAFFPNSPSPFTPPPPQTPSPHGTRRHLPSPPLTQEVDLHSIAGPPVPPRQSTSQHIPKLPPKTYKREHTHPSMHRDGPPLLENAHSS
Description: SOS1-HiBiT Degradation Assay. Type of assay: cell-based. To be noted: HEK293 cells expressing HiBiT-tagged endogenous SOS1, 6 h treatment. As for the experimental part:
HEK293 cells were engineered to express a HiBiT-tagged endogenous SOS1 protein. The cells were cultured in DMEM media supplemented with 10% fetal bovine serum, streptomycin, and penicillin. The cells were seeded in a white walled 384-well plate at 12,500 cells/well in 50 μL culture media. The cells were incubated at 37° C. under 5% CO2 overnight. The cells were then treated with DMSO (control) or a compound for 6 h at 37° C. under 5% CO2. After incubation, 25 μL media was removed from each cell and 25 μL NANO-GLO® lytic detection reagent was added to each well. After a 10 min incubation with shaking, luminescence was measured using a PERKINELMER ENVISION® multimode plate reader.

For the molecule `Cc1c([C@@H](C)Nc2nnc(C)c3ccc(N4CCN(CCCCCCCCCN5CCN(C(=O)CNc6cccc7c(C8CCC(=O)NC8=O)nn(C)c67)CC5)CC4)cc23)cccc1C(F)(F)F` (stereo partly drawn) [Compound A203, 3-(1-methyl-7-((2-(4-(9-(4-(1-methyl-4-(((R)-1-(2-methyl-3-(trifluoromethyl)-phenyl)ethyl)amino)phthalazin-6-yl)piperazin-1-yl)nonyl)piperazin-1-yl)-2-oxoethyl)amino)-1H-indazol-3-yl)piperidine-2,6-dione], the DC50 is at most 100 nM and the Dmax was at least 70%.

In turn, `COc1cc2nc(C)nc(N[C@H](C)c3cc(N)cc(C(F)(F)F)c3)c2cc1OC` [Compound C1, (R)—N-(1-(3-amino-5-(trifluoromethyl)phenyl)ethyl)-6,7-dimethoxy-2-methylquinazolin-4-amine, reference compound] displayed a DC50 above 10000 nM.

Take `Cc1c([C@@H](C)Nc2nnc(C)c3ccc(N4CCN(CCCCCCCCCN5CCC(c6cc7c(cc6F)C(=O)N(C6CCC(=O)NC6=O)C7)CC5)CC4)cc23)cccc1C(F)(F)F` (stereo partly drawn) [Compound A103, 3-(6-Fluoro-5-(1-(9-(4-(1-methyl-4-(((R)-1-(2-methyl-3-(trifluoromethyl)phenyl)-ethyl)amino)phthalazin-6-yl)piperazin-1-yl)nonyl)piperidin-4-yl)-1-oxoisoindolin-2-yl)-piperidine-2,6-dione]: the DC50 was at most 100 nM and the Dmax was at least 70%.

Molecule `Cc1c([C@@H](C)Nc2nnc(C)c3ccc(N4CCN(CCCCCN5CCC(c6cc7c(cc6F)C(=O)N(C6CCC(=O)NC6=O)C7)CC5)CC4)cc23)cccc1C(F)(F)F` (stereo partly drawn) [Compound A101, 3-(6-fluoro-5-(1-(5-(4-(1-methyl-4-(((R)-1-(2-methyl-3-(trifluoromethyl)phenyl)-ethyl)amino)phthalazin-6-yl)piperazin-1-yl)pentyl)piperidin-4-yl)-1-oxoisoindolin-2-yl)-piperidine-2,6-dione] returned a DC50 of at most 100 nM and a Dmax of at least 70%.

For the molecule `Cc1c([C@@H](C)Nc2nnc(C)c3ccc(N4CCN(CCCCCN5CCN(C(=O)CNc6ccc(C7CCC(=O)NC7=O)cc6)CC5)CC4)cc23)cccc1C(F)(F)F` (stereo partly drawn) [Compound A301, 3-(4-((2-(4-(5-(4-(1-Methyl-4-(((R)-1-(2-methyl-3-(trifluoromethyl)phenyl)-ethyl)amino)phthalazin-6-yl)piperazin-1-yl)pentyl)piperazin-1-yl)-2-oxoethyl)amino)phenyl)-piperidine-2,6-dione], the DC50 is above 2000 nM and the Dmax was below 30%.

The molecule `Cc1c([C@@H](C)Nc2nnc(C)c3ccc(N4CCN(CCCCCCCCCN5CCN(C(=O)CNc6ccc(C7CCC(=O)NC7=O)cc6)CC5)CC4)cc23)cccc1C(F)(F)F` (stereo partly drawn) [Compound A303, 3-(4-((2-(4-(9-(4-(1-methyl-4-(((R)-1-(2-methyl-3-(trifluoromethyl)phenyl)-ethyl)amino)phthalazin-6-yl)piperazin-1-yl)nonyl)piperazin-1-yl)-2-oxoethyl)amino)phenyl)-piperidine-2,6-dione] gave a DC50 of at most 100 nM and a Dmax of at least 70%.
